#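 Grown in 96-well plates, cells were treated for 48 hours with each compound at five concentrations. Insufficient inhibition: endpoint recorded as highest concentration tested. At the GI50, growth is halved.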 Calls of active or inactive are those of the source. Cut-off read from the data, not from the text of the source: active = GI50 up to about 1.1 µM and inactive = higher.
# Key:
# Assay in all cases: DTP human tumour cell line panel, 48 h
# [1] = tested on: M14
# [2] = tested on: SK-MEL-2
# [3] = tested on: HT-29
# [4] = tested on: HCC 2998
# [5] = tested on: SK-MEL-5
# [6] = tested on: KM12
# [7] = tested on: SK-OV-3
# [8] = tested on: LOX IMVI
# [9] = tested on: NCI-H23
# [10] = tested on: HL-60
# [11] = tested on: MDA-N
# [12] = tested on: HOP-92
# [13] = tested on: HOP-62
# [14] = tested on: RPMI-8226
# [15] = tested on: 786-0
# [16] = tested on: SF-268
# [17] = tested on: UACC-257
# [18] = tested on: SF-539
# [19] = tested on: TK-10
# [20] = tested on: MDA-MB-435
Structure (SMILES),GI50 [1],GI50 [2],GI50 [3],GI50 [4],GI50 [5],GI50 [6],GI50 [7],GI50 [8],GI50 [9],GI50 [10],GI50 [11],GI50 [12],GI50 [13],GI50 [14],GI50 [15],GI50 [16],GI50 [17],GI50 [18],GI50 [19],GI50 [20]
Cc1cn([C@@H]2O[C@H](CO)[C@@H](O)[C@@H]2O)c(=O)[nH]c1=O,> 1000 µM (inactive),> 1000 µM (inactive),> 1000 µM (inactive),> 1000 µM (inactive),> 1000 µM (inactive),> 1000 µM (inactive),> 1000 µM (inactive),> 1000 µM (inactive),> 1000 µM (inactive),> 1000 µM (inactive),> 1000 µM (inactive),> 1000 µM (inactive),> 1000 µM (inactive),> 1000 µM (inactive),> 1000 µM (inactive),> 1000 µM (inactive),> 1000 µM (inactive),> 1000 µM (inactive),> 1000 µM (inactive),> 1000 µM (inactive)
CC(CSc1nc2c(c(=N)n1-c1ccccc1)c(=S)n(-c1ccccc1)c(=S)n2-c1ccccc1)CN(C)C (stereo not given),1.86 µM (inactive),2.45 µM (inactive),1.95 µM (inactive),1.32 µM (inactive),2.05 µM (inactive),2.25 µM (inactive),4.06 µM (inactive),1.05 µM (active),2.2 µM (inactive),0.615 µM (active),1.91 µM (inactive),1.56 µM (inactive),1.88 µM (inactive),0.335 µM (active),1.15 µM (inactive),1.71 µM (inactive),1.79 µM (inactive),3.05 µM (inactive),1.69 µM (inactive),1.72 µM (inactive)
CCOC(=O)C#Cc1ccc(C#CC(=O)OCC)cc1,2.12 µM (inactive),0.421 µM (active),1.99 µM (inactive),6.46 µM (inactive),2.89 µM (inactive),2.76 µM (inactive),9.84 µM (inactive),3.03 µM (inactive),3.69 µM (inactive),2.74 µM (inactive),1.2 µM (inactive),5.69 µM (inactive),3.81 µM (inactive),2.56 µM (inactive),4.35 µM (inactive),3.88 µM (inactive),22.1 µM (inactive),10.6 µM (inactive),2.9 µM (inactive),0.818 µM (active)
NC(=O)NC(=O)c1cccc(C(=O)NC(N)=O)n1,> 100 µM (inactive),> 100 µM (inactive),> 100 µM (inactive),> 100 µM (inactive),> 100 µM (inactive),> 100 µM (inactive),> 100 µM (inactive),> 100 µM (inactive),> 100 µM (inactive),> 100 µM (inactive),> 100 µM (inactive),24 µM (inactive),> 100 µM (inactive),> 100 µM (inactive),> 100 µM (inactive),> 100 µM (inactive),> 100 µM (inactive),> 100 µM (inactive),> 100 µM (inactive),> 100 µM (inactive)
CC(C)C(OC(=O)c1ccc(NCC2=CC(=O)C=CC2=O)cc1)C(C)C,6.52 µM (inactive),11.6 µM (inactive),10.7 µM (inactive),13.6 µM (inactive),10.6 µM (inactive),11.5 µM (inactive),13.8 µM (inactive),5.15 µM (inactive),5.05 µM (inactive),1.25 µM (inactive),5.2 µM (inactive),1.79 µM (inactive),18.3 µM (inactive),3.15 µM (inactive),10.4 µM (inactive),12.1 µM (inactive),7.76 µM (inactive),1.99 µM (inactive),4.25 µM (inactive),4.75 µM (inactive)
BrCc1ccc2ccc3ccc(CBr)nc3c2n1,2.85 µM (inactive),3.12 µM (inactive),1.95 µM (inactive),2.86 µM (inactive),2.77 µM (inactive),3.61 µM (inactive),3.08 µM (inactive),1.58 µM (inactive),5.61 µM (inactive),1.38 µM (inactive),2.74 µM (inactive),2.06 µM (inactive),7 µM (inactive),0.887 µM (active),2.51 µM (inactive),3.27 µM (inactive),3.18 µM (inactive),4.67 µM (inactive),2.57 µM (inactive),4.12 µM (inactive)
Cc1c(C(=O)c2ccccc2)[n+]([O-])c2cc(Cl)c(Cl)cc2[n+]1[O-],2.87 µM (inactive),5.92 µM (inactive),14.4 µM (inactive),1.56 µM (inactive),15.2 µM (inactive),8.65 µM (inactive),19.6 µM (inactive),3.72 µM (inactive),2.39 µM (inactive),2.04 µM (inactive),12.3 µM (inactive),2.96 µM (inactive),15.9 µM (inactive),4.7 µM (inactive),15.8 µM (inactive),15.3 µM (inactive),3.17 µM (inactive),17.2 µM (inactive),11.5 µM (inactive),11.9 µM (inactive)
COc1ccc2cc3c4cc5c(cc4cc[n+]3cc2c1OC)OCO5,15.2 µM (inactive),22.8 µM (inactive),26.3 µM (inactive),22 µM (inactive),3.39 µM (inactive),2.88 µM (inactive),29.4 µM (inactive),28.4 µM (inactive),8.09 µM (inactive),19.2 µM (inactive),7.52 µM (inactive),18.1 µM (inactive),5.6 µM (inactive),8.13 µM (inactive),10.2 µM (inactive),2.94 µM (inactive),6.46 µM (inactive),11.4 µM (inactive),19.9 µM (inactive),6.95 µM (inactive)
COc1ccccc1C(=O)c1c(NCc2ccccc2)c(=O)c1=O,> 100 µM (inactive),> 100 µM (inactive),> 100 µM (inactive),> 100 µM (inactive),> 100 µM (inactive),> 100 µM (inactive),> 100 µM (inactive),29.9 µM (inactive),> 100 µM (inactive),21 µM (inactive),> 100 µM (inactive),> 100 µM (inactive),> 100 µM (inactive),32.9 µM (inactive),40.2 µM (inactive),> 100 µM (inactive),> 100 µM (inactive),0.0841 µM (active),> 100 µM (inactive),> 100 µM (inactive)
CC(C)(C)OC(=O)c1ccc(NCc2cc(O)ccc2O)cc1,1.94 µM (inactive),4.34 µM (inactive),13.5 µM (inactive),7.36 µM (inactive),3.65 µM (inactive),2.93 µM (inactive),6.05 µM (inactive),3.88 µM (inactive),4.93 µM (inactive),0.447 µM (active),3.31 µM (inactive),1.34 µM (inactive),8.97 µM (inactive),0.617 µM (active),2.32 µM (inactive),3.44 µM (inactive),3.78 µM (inactive),1.22 µM (inactive),2.13 µM (inactive),2.96 µM (inactive)

# From ChEMBL document CHEMBL1201862, “PubChem BioAssay data set” (2004)
